Test results from patent publication US8685970B2, “Quinolines and related analogs as sirtuin modulators” (GlaxoSmithKline, LLC, priority 2008, dated 2014).

biological target: T1, SIRT1 (Homo sapiens, UniProt Q96EB6); assay: Mass spectrometry based SIRT1 deacetylation assay (activation); assay type: biochemical; conditions: 10 nM SIRT1, 0.5 μM peptide substrate, 120 μM βNAD+, 25 min at 25° C.
T1 sequence (Q96EB6 1-747): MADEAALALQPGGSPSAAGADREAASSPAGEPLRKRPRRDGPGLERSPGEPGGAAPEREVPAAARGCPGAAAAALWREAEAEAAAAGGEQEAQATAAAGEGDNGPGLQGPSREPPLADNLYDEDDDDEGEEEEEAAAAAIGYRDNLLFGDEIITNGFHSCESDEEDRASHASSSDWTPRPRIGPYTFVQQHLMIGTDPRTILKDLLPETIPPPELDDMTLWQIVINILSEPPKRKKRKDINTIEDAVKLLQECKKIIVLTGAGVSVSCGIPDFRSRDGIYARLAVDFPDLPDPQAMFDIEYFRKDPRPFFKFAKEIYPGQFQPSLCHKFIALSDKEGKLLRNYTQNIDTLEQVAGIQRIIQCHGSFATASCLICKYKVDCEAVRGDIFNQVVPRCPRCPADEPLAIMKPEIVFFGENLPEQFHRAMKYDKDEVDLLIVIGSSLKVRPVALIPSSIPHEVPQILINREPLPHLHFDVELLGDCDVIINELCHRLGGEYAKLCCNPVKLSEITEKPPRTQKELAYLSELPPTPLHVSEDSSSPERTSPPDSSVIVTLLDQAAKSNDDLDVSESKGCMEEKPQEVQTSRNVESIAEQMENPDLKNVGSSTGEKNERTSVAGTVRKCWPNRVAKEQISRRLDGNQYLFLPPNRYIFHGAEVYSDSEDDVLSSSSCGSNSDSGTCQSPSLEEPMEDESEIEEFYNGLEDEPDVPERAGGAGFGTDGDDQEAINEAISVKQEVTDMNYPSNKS
Procedure, shortened: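 Activation reported as EC1.5, the compound concentration producing 150% of DMSO-control deacetylation, plus maximum fold activation. Readout is mass-spectrometric ratio of deacetylated to acetylated p53-based peptide (0.5 μM) after 25 min, 25 °C, with 120 μM βNAD+ and 10 nM His-tagged human SIRT1, pH 8.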

Row | Structure (SMILES) | % Fold Act. (percent maximum fold activation) | EC1.5 (concentration of test compound that results in 150% activation of SIRT1)
1 | O=C(Nc1nc2ccccc2s1)c1cccc2ccc(-c3cccc(N4CCOCC4)c3)nc12 [Compound 250] | A (Fold activation >200%) | A (EC1.5<1.0 uM)
2 | Cc1cc(-c2ccc3cccc(C(=O)Nc4nccs4)c3n2)no1 [Compound 69] | – | C (EC1.5>25 uM)
3 | O=C(Nc1cccnc1)c1cccc2ncc(-c3cccc(OC(F)(F)F)c3)nc12 [Compound 126] | B (Fold Activation <200%) | B (EC1.5 1-25 uM)
4 | O=C(Nc1nc(CN2CCOCC2)cs1)c1cccc2ccc(-c3cccnc3)nc12 [Compound 190] | A (Fold activation >200%) | A (EC1.5<1.0 uM)
5 | O=S(=O)(Nc1cccc2ccc(-c3cccc(OC(F)(F)F)c3)nc12)N1CCCC1 [Compound 112] | – | C (EC1.5>25 uM)
6 | O=C(Nc1ccc(CN2CCOCC2)cc1)c1cccc2ccc(-c3cccc(C(F)F)c3)nc12 [Compound 303] | A (Fold activation >200%) | A (EC1.5<1.0 uM)
7 | O=C(Nc1cccc2ccc(-c3ccc(F)c(C(F)(F)F)c3)nc12)c1ccncc1 [Compound 161] | – | C (EC1.5>25 uM)
8 | O=C(Nc1ccncc1)c1cccc2ccc(-c3cccc(N4CCOCC4)c3)nc12 [Compound 254] | A (Fold activation >200%) | A (EC1.5<1.0 uM)
9 | O=C(O)c1csc(NC(=O)c2cccc3ccc(-c4cccc(C(F)(F)F)c4)nc23)n1 [Compound 101] | A (Fold activation >200%) | B (EC1.5 1-25 uM)
10 | Cc1noc(NC(=O)c2cccc3ccc(-c4cccc(C(F)(F)F)c4)nc23)c1C [Compound 82] | A (Fold activation >200%) | B (EC1.5 1-25 uM)
11 | Cc1nc(NC(=O)c2cccc3ccc(-c4cccc(C(F)(F)F)c4)nc23)sc1C [Compound 52] | A (Fold activation >200%) | A (EC1.5<1.0 uM)
12 | O=C(Nc1ccc(CN2CCCC2)nc1)c1cccc2ccc(-c3cccc(C(F)(F)F)c3)nc12 [Compound 292] | A (Fold activation >200%) | A (EC1.5<1.0 uM)
